From US7863415B2 (The Regents of the University of California, priority 2004, dated 2011)
“Also recorded” adds a separate entry of the source. Like-named read-outs stand apart in the source and are kept apart here. Starred links: 1 amine or outer side, 2 acyl side, 3 side chain; linkers in the order of their positions; H or OH if unused. Non-standard residues stand in square brackets, D forms with d. Residues, ends and D or L forms follow the SMILES beside them. No end group written: not given here. X1 = N=C(N)NC(=O)c1nc(Cl)c(N(CC(=O)[*:2])[*:1])nc1N

Tests used:
[1] = system: [Ca^2+]i in U87 glioma cells; test: [Ca2+]i in U87 glioma cells loaded with fura-2AM, quantitative fluorescent microscopy; format: cell-based, human; conditions: U87 glioma cells
Method: Therefore, the levels of [Ca^2+]i in U87 glioma cells loaded with fura-2AM were measured using quantitative fluorescent microscopy. […] The ATP-dependent calcium regulatory mechanisms within U87 glioma cells containing fura-2 were then examined. […] ATP synthase operates in reverse when milimolar concentrations of calcium are stored by the mitochondrion (Nicholls, Bioenergetics, 3, Academic Press, London, 3rd edition (2002)).
Quantitative fluorescent microscopy of [Ca^2+]i levels. [Ca^2+]i levels can be measured in cells loaded with either fura-2A or fura-2FFAM under the conditions described above.

U87 glioma cells [2] = test: Glioma cell death, manual cell counts with trypan blue exclusion; conditions: for Glioma Effect: cytotoxic concentration: glioma cells
[3] = system: glioma cells and primary astrocytes; test: Cell entry by confocal microscopy; format: in vitro ADME
trypsin = molecular target: T1, trypsin (Bos taurus, UniProt P00760); test: Enzyme digestion with trypsin (negative control), LC-MS/ESI; format: in vitro ADME, bovine; conditions: for Conclusion (Peptidase: Trypsin): 10 μM conjugate, 10 units enzyme, 25° C., pH 7.4, 24 h
T1 construct: purchased CalBiochem (San Diego, Calif.); host or cells: bovine pancreas
T1 sequence (P00760 24-246): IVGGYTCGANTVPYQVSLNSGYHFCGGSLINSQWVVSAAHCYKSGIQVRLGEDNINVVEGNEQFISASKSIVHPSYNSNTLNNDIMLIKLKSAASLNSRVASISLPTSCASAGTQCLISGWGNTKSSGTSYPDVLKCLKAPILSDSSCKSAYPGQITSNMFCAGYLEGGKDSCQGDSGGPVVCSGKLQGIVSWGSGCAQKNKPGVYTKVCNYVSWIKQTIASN
Method: (§1) Compound 3b is a C5am-Gly-peptide conjugate containing two D-amino acids, and compound 3c is a C5am-Gly-peptide conjugate coupled to a peptide to generate an analog of opioid peptides that cross the blood brain barrier (BBB). The resultant conjugates (compounds 3a-c) were tested for selective cleavage by the brain peptidase enkephalinase (neutral endopeptidase 24.11; Calbiochem) via incubation for 24 h in the presence or absence of the enzyme, and aliquots from the reaction solutions were then analyzed by LC-MS to identify the C5am-Gly conjugate (compound 3a), starting material, and enzymatic cleavage products (see, Scheme 3). As negative control experiments, the conjugates were analyzed following treatment with (1) bovine pancreatic trypsin (Calbiochem) or (2) the buffer solutions without enzymes.
(§2) Enzyme digestion. Endopeptidase 24.11 (neutral, porcine kidney) and trypsin (bovine pancreas) were purchased from CalBiochem (San Diego, Calif.) and used as received. Enzymatic cleavage experiments using endopeptidase 24.11 were conducted at 25° C. in a pH 7.4 Tris buffer (150 mM NaCl, 50 mM Tris, 0.1% Triton X-100) as recommended by the manufacturer (see also, Barnes et al., J. Neurochem., 64:1826-1832 (1995), Gafford et al., Biochemistry, 22:3265-3271 (1983)). Similarly, trypsin cleavage experiments were conducted at 25° C. in pH 7.4 Dulbecco's phosphate buffered saline (Gibco; Grand Island, N.Y.). The digestion reactions included 10 μM of the amiloride-peptide conjugate and 10 units of enzyme in 250 μL of buffer. Direct aliquots were analyzed by LC-MS/ESI following a 24 hour incubation period.
(§3) Enzyme Digestion Study. Compounds 3a-d were each incubated at 25° C. with 10 units of enkephalinase (endopeptidase 24.11) to determine their susceptibility towards enzymatic cleavage. Reaction aliquots were taken following a 24 hour incubation period and analyzed directly by LC-MS/ESI (Thermo Finnigan LCQ) for the presence of the starting material and the targeted cleavage product, compound 3a (C5am-Gly). […] Since there are no basic amino acid residues in compounds 3a-d, trypsin was employed as a negative control to ensure that any observed cleavage products could be ascribed only to endopeptidase-specific interactions (Jackson, Protein Science, 8:603-613 (1999)).

NHE1 = NHE1 (Homo sapiens, UniProt P19634); test: NHE1 inhibition: sodium-dependent pHi recovery in BCECF-loaded U87 glial cells after ammonium chloride pre-pulse; format: cell-based; design: Sodium-dependent proton extrusion in U87 glial cells and in primary astrocytes is mediated by the type 1 sodium proton exchanger (NHE1); endogenous in cells; host or cells: U87 human glioma cells
Method: Intracellular pH Measurements. U87 glial cells were grown on glass coverslips and incubated for 30 minutes at 37° C. with the pH-sensitive dye, 2′,7′-bis(2-carboxyethyl)-5(6)-carboxyfluorescein-AM (BCECF-AM; Molecular Probes, OR). Cells were rinsed with HEPES Ringer buffer twice and maintained at 37° C. for an additional 15 minutes to permit intracellular hydrolysis of the AM ester; trapping BCECF within the cells. Cells on coverslips were placed in a Hitachi F2000 fluorescent spectrophotometer and excited at 440 and 507 nm with fluorescent emissions recorded at 535 nm (Hegde et al., J. Pharmacol. Exp. Ther., 310:67-74 (2004)).
NHE inhibition by compounds 3a and 3c was evaluated using intracellular pH (pHi) measurements in the U87 human glial cell line (Hegde et al., supra). Cells loaded with BCECF were then acidified using the ammonium chloride pre-pulse method (Roos et al., Physiol Rev, 61:296-434 (1981)). The subsequent sodium-dependent recovery of pHi by these cells in the absence of bicarbonate was monitored using a spectrofluorometer. Sodium-dependent proton extrusion in U87 glial cells and in primary astrocytes is mediated by the type 1 sodium proton exchanger (NHE1) (McLean et al., supra; Hegde et al., supra) and was monitored in the presence or absence of compound 3a or 3c.
IC50 drug determinations for NHE1. This method utilizes spectrofluorometric measurements of [H^+]i as described above. The ammonium chloride prepulse method can be used to acidify cells in the presence of HR that is sodium-substituted with NMDG. Perfusion of the acidified cells with HR that contains sodium causes activation of NHE1 that is inhibited in a concentration-dependent fashion as described in McLean et al., supra.

[4] = system: enkephalinase (endopeptidase 24.11); test: Enzyme digestion with enkephalinase, LC-MS/ESI; format: in vitro ADME, porcine; conditions: for Conclusion (Peptidase: Enkephalinase): 10 μM conjugate, 10 units enzyme, 25° C., pH 7.4, 24 h; for Cleavage by enkephalinase (release of compound 3a): 24 h incubation, LC-MS
Method: as §1, §2, §3

U87 cells = test: Intracellular translocation into U87 cells by fluorescence microscopy; conditions: 50 μM; 90 and 180 min; 380 nm excitation, 510 nm emission
Text: Fluorescence Microscopy. […] Excitation light was provided by a xenon arc lamp coupled to the Polychrome IV scanning monochromator (Till Photonics; Grafelfing, Germany) that alternately excites with different wavelengths. Excitation light was delivered by fiber optics to cells through the epifluorescence port of a Nikon E600 microscope coupled to a Nikon Fluor 60× water immersion lens. The detector was an Orca II-ER CCD digital camera (Hamamatsu USA; Bridgewater, N.J.), which is controlled by C-Imaging Simple PCI software (Compix; Cranberry Township, Pa.).
Intracellular emission intensities were collected in regions of interest (ROI) from an average of 4-8 cells/field using Simple PCI imaging software. […] Images were captured as TIFF files (C-imaging Simple PCI software), and light and fluorescent images of the same field were imported in Photoshop 6.0 and vector graphics added using Illustrator 9.0.1 (Adobe; San Jose, Calif.).

U87 glioma cells [5] = test: Glioma cell proliferation, manual cell counts with trypan blue; format: cell-based, human; conditions: glioma cells
Method: C(5)-amiloride glycine conjugate (C5am-Gly) inhibits NHE1 in U87 glioma cells and is antiproliferative. […] The inhibitory activity of C5am-Gly against NCX was tested and a systematic log dose screen of C5am-Gly against a panel of glioma cells and primary astrocytes was performed.
Manual cell counts with dye exclusion assays. Identical concentrations of glioma cells can be plated on 60 mm dishes and grown until 50% confluent. Following drug treatments, media containing floating cells can be collected in suspension. Adherent cells can be rinsed in calcium- and magnesium-free phosphate-buffered saline (PBS-CMF) and removed by incubation with 0.25% v/v trypsin for 5 minutes (37° C.). Cell suspensions can be combined with the floating fraction and centrifuged at 350×g for 5 minutes. The resulting pellet (one per dish) can be resuspended in equal volumes of PBS-CMF with 0.4% trypan blue and/or 500 nM Sytox Green. 10 μL aliquots of the suspension can be plated on a hemocytometer, and cells can be counted 5 minutes after staining. Simultaneous staining of cells with trypan (TB) and Sytox Green (SG) can be visualized by switching between visible light and fluorescein green.

NHE1 and NCX = NHE1 and NCX inhibitors from the literature; cited from earlier work

NHE1, sequence (P19634 whole entry): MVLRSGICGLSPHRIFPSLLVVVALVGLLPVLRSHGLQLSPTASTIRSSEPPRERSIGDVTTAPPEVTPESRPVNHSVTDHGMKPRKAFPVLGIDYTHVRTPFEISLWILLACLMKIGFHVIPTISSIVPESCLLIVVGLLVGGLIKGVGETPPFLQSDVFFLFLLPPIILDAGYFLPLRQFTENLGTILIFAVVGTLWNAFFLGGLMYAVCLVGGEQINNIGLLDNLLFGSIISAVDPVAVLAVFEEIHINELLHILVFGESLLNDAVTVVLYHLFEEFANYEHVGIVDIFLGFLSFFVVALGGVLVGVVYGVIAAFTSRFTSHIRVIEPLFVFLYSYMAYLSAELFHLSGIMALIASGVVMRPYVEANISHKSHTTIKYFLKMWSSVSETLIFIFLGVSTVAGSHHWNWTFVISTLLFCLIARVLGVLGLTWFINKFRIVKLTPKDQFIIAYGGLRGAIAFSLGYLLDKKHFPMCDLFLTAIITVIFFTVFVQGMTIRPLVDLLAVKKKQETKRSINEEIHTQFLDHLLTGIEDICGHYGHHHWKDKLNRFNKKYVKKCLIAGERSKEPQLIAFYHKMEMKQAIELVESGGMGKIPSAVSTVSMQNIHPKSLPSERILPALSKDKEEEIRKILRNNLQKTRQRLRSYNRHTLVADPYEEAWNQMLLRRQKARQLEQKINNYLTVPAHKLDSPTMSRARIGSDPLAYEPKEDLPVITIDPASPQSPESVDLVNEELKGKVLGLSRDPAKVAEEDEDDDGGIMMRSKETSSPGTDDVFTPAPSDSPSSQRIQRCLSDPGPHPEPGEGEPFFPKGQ

Compound: N=C(NC(=O)CN)NC(=O)c1nc(Cl)c(N)nc1N [C2am-Gly]
- Effect on [Ca2+]i [1]: increased
- Potency of killing glioma cells relative to amiloride (U87 glioma cells [2]): greater than 50 times
- Concentration that killed U87 glioma cells (U87 glioma cells [2]; U87 glioma cells, C2am-Gly within 24 h): ≤ 10 µM
- Glioma Effect: cytotoxic concentration (U87 glioma cells [2]): ≦10 μM cytotoxic
- Cell entry by confocal microscopy [3]: not visualized entering

Compound: CC(C)C[C@H](NC(=O)[C@H](Cc1ccccc1)NC(=O)CNC(=O)CNC(=O)CNC(=O)CNc1nc(N)c(C(=O)NC(=N)N)nc1Cl)C(=O)O [Compound 3c, C5am-Gly-Gly-Gly-Gly-Phe-Leu-OH] (H-[X1]GGGFL-OH)
- Conclusion (Peptidase: Trypsin) (trypsin): Trypsin-mediated cleavage
- Cleavage by trypsin (release of compound 3a) (trypsin; 24 h incubation, LC-MS): did not generate C5am-Gly; also recorded: did not release compound 3a
- IC50 (NHE1; U87 glial cells, sodium-dependent pHi recovery without bicarbonate, read-out: IC50 (μM) +/− SD (NHE inhibition)): > 100 µM
- Conclusion (Peptidase: Enkephalinase) [4]: Enkephalinase-mediated
- Cleavage by enkephalinase (release of compound 3a) [4]: selectively cleaved; also recorded: released compound 3a; also recorded: complete digestion

Compound: CCN(c1nc(N)c(C(=O)NC(=N)N)nc1Cl)C(C)C [EIPA, ethylisopropylamiloride]
- Cell entry by confocal microscopy ([3]; C2am-Gly after 90-240 minutes): Rapid cell permeation
- Reversal of NHE1 inhibition after removal of compound (NHE1; U87 cells): slow and incomplete recovery
- Intracellular accumulation in U87 cells (U87 cells): intracellular accumulation; also recorded: rapid cell permeation

Compound: CS(=O)(=O)O.CS(=O)(=O)c1cc(C(=O)N=C(N)N)ccc1N1CCCCC1 [HOE694]
- Effect on [Ca2+]i [1]: did not alter

Compound: C[C@H](CCC(=O)O)C[C@H](C)C[C@H](C)C(=O)/C=C(\O)[C@H](C)C[C@H](C)C/C=C/[C@@H](C)[C@@H](O)[C@@H](C)[C@@H](O)C[C@@H]1CC[C@@](C)([C@H]2CC[C@@](C)([C@@H](C)O)O2)O1 [Ionomycin]
- Time to kill glioma cells (U87 glioma cells [2]): 90 to 180 min

Compound: N=C(N)SCCc1ccc(OCc2ccc([N+](=O)[O-])cc2)cc1 [KB-R7943]
- Effect of pretreatment on [Ca2+]i after calcium release from mitochondrial stores ([1]; FCCP or oligomycin): did not cause a persistent increase
- Glioma Effect: cytotoxic concentration (U87 glioma cells [2]): not cytotoxic
- Cytotoxicity to glioma cells (U87 glioma cells [2]; manual cell counts, trypan blue cell exclusion assay): non-toxic
- Glioma Effect: antiproliferative concentration (U87 glioma cells [5]): not antiproliferative
- Rel. Activity (NHE1 and NCX): NCX > NHE (blocks Ca^2+ influx)

Compound: CCOc1ccc(Oc2ccc(OCc3cc(F)ccc3F)cc2)c(N)c1 [SEA0400]
- Rel. Activity (NHE1 and NCX): NCX only no NHE activity (Ca^2+ influx mode > Ca^2+ efflux mode)

Compound: CC[C@H]1/C=C/C=C/C[C@@H](C)[C@H](O)[C@@](C)(O)C(=O)[C@@H](C)[C@H](O)[C@@H](C)C(=O)[C@@H](C)[C@H](O)[C@@H](C)/C=C/C(=O)O[C@@H]2[C@H](C)[C@H](CC1)O[C@]1(CC[C@H](C)[C@H](C[C@@H](C)O)O1)[C@H]2C [oligomycin]
- [Ca2+]i transients ([1]; F0F1ATPase inhibition): > 800 nM

Compound: C[C@@H]1O[C@@H](O[C@H]2C[C@@H](O)[C@]3(CO)[C@H]4[C@H](O)C[C@]5(C)[C@@H](C6=CC(=O)OC6)CC[C@]5(O)[C@@H]4CC[C@]3(O)C2)[C@H](O)[C@H](O)[C@H]1O [oubain]
- Effect on [Ca2+]i [1]: did not demonstrably alter

Compound: C/C=C(/C)C(=O)O[C@H]1C(C)=C2[C@H]([C@@H]1OC(=O)CCCCCCC)[C@@](C)(OC(C)=O)C[C@H](OC(=O)CCC)[C@@]1(O)[C@H]2OC(=O)[C@@]1(C)O [thapsigargin]
- Effect on [Ca2+]i [1]: modest and transient increase

Compound: Compound 3d: C(5)-amiloride peptide conjugate prepared according to Scheme 1 with peptide sequence Gly-Gly-Gly-Phe-Leu (GGGFL; not fully specified (N-terminus); printed as Gly-Gly-Gly-Phe-Leu; also: C(5)-amiloride conjugate)
- Conclusion (Peptidase: Trypsin) (trypsin): Trypsin resistant
- Conclusion (Peptidase: Enkephalinase) [4]: Enkephalinase resistant
- Cleavage by enkephalinase (release of compound 3a) [4]: did not liberate compound 3a
